# Tested on: normal human skin fibroblasts of the cell line NHDF
# Assay: Fluoroscan process: antioxidant capacity of human skin fibroblasts
# Assay type: cell-based
# Settings: NHDF cells, reference substance at 25 μM
# From the text: For the present cytotoxicity tests and the Fluoroscan process normal human skin fibroblasts of the cell line NHDF were used as the test system, depending on their availability.
# The biologically active ingredients (standardised tomato extract, β-Carotene suspension, α-Tocopheryl acetate, standardized grape seed extract, ascorbic acid, selenium yeast) of Seresis® were first investigated in the above-mentioned amounts for possible cytotoxic effects and for their effect on the antioxidant capacity of human skin fibroblasts (NHDF). Apart from the pure mixture of active ingredients the entire contents of an active substance capsule were also used. In addition, a number of additives (oils, etc.) were also included in the test. Using two different in vitro skin models investigations were also carried out to see to what extent the protective effects of the active substances can be visualised. For this, the models were exposed to two different stressors (UV irradiation, activated immune cells).
structure (smiles),measurement,value
Cc1c(C)c2c(c(C)c1O)CC[C@@](C)(CCC[C@H](C)CCC[C@H](C)CCCC(C)C)O2 [α-Tocopherol],antioxidant potential compared with the carrier control,120%

# Source: patent US20050053560A1, “Use of a composition containing extracts of Vitis vinifera and lycopersicum for protecting the skin” (Pharmaton S.A, priority 2003, published 2005)
